# In patent US20100197760A1, “DISUBSTITUTED PHENYLPYRROLIDINES AS MODULATORS OF CORTICAL CATECHOLAMINERGIC NEUROTRANSMISSION” (NSAB, FILIAL AF NEUROSEARCH SWEDEN AB, SVERIGE, priority 2007, published 2010):
# Structures can show the parent of a compound that is named as a salt. Where two headings read alike, the source gives them in different places.
# Columns and labels:
# [1] = system: DOPAC levels (3,4-dihydroxyphenylacetic acid) in the rat striatum; test: In vivo neurochemistry: tissue content of DOPAC in rat striatum; set-up: species or system rat (male Sprague-Dawley); details: 100 μmol/kg s.c., 60 min after administration, %-increase from control value
# Protocol: The measurement of the tissue content of DOPAC is well established in the field of research since the 1960's. In short, male Sprague-Dawely rats are administered the test compound 60 minutes prior to decapitation. The brain is rapidly taken out and dissected. The striatum is rapidly frozen and subsequently quantitatively analysed with respect to its content of DOPAC by means of HPLC and electrochemical detection. The number of animals used for each test compound/vehicle is 4/group.
# Male Sprague-Dawley rats weighing 220-320 g are used throughout the experiments. Sixty (60) minutes following administration of the test substance, the rats are decapitated. Directly after decapitation the brain is removed from the skull and put on a glass petri bowl filled with ice. The limbic system (containing the nucleus accumbens—both the core and shell, most parts of the olfactory tubercle and ventral pallidum) is dissected using two thin, angled tweezers and put directly on foil on dry ice (carbon dioxide −78° C.). The striatum and cortex are then dissected and also put on dry ice. The time from decapitation until the last tissue is dissected varies from four to six minutes. The tissue is weighed using a Sartorius BP3105 connected to a computer and packed in labelled tin foil, then stored in an −80° C. freezer. Great care is taken in order to keep the tissue frozen until the time of neurochemical analysis. Each brain part is subsequently analyzed with respect to its content of monoamines and their metabolites.
# The monoamine transmitter substances (NE (norepinephrine), DA (dopamine), 5-HT (serotonin)) as well as their amine (NM (normethanephrine), 3-MT (3-methoxytyramine)) and acid (DOPAC (3,4-dihydroxyphenylacetic acid), 5-HIAA (5-hydroxyindoleacetic acid), HVA (homovanillic acid)) metabolites are quantified in brain tissue homogenates by HPLC separations and electrochemical detection.
# The analytical method is based on two chromatographic separations dedicated for amines or acids. Two chromatographic systems share a common auto injector with a 10-port valve and two sample loops for simultaneous injection on the two systems. Both systems are equipped with a reverse phase column (Luna C18(2), dp 3 μm, 50*2 mm i.d., Phenomenex) and electrochemical detection is accomplished at two potentials on glassy carbon electrodes (MF-1000, Bioanalytical Systems, Inc.). The column effluent is passed via a T-connection to the detection cell or to a waste outlet. This is accomplished by two solenoid valves, which block either the waste or detector outlet. By preventing the chromatographic front from reaching the detector, better detection conditions are achieved. The aqueous mobile phase (0.4 ml/min) for the acid system contains citric acid 14 mM, sodium citrate 10 mM, MeOH 15% (v/v) and EDTA 0.1 mM. Detection potentials relative to Ag/AgCl reference are 0.45 and 0.60V. The aqueous ion pairing mobile phase (0.5 ml/min) for the amine system contains citric acid 5 mM, sodium citrate 10 mM, MeOH 9% (v/v), MeCN 10.5% (v/v), decane sulfonic acid 0.45 mM, and EDTA 0.1 mM. Detection potentials relative to Ag/AgCl reference are 0.45 and 0.65V.
# [2] = system: extracellular levels of dopamine, norepinephrine and serotonin in striatum and prefrontal cortex; test: In vivo microdialysis in awake, freely moving rats; set-up: species or system rat (male Sprague-Dawley); details: mirtazapine 10 mg/kg s.c. (FIGS. 21 and 22)
# [3] = system: DOPAC levels (3,4-dihydroxyphenylacetic acid) in the rat striatum; details: 100 μmol/kg s.c., data taken from Table 2 in Ref 1 (J. Med. Chem. 1994, 37, 2735); cited from earlier work
# [4] = system: extracellular levels of dopamine, norepinephrine and serotonin in striatum and prefrontal cortex; details: literature statement (Pliszka, 2005); cited from earlier work
SMILES,DOPAC %-increase [1],melting point [°C],also measured
"Fc1ccc(C2CCNC2)c(F)c1 (stereo not drawn) [Example 2, 3-(2,4-DIFLUOROPHENYL)PYRROLIDINE]",−22%,–,–
"Fc1ccc(C2CCNC2)c(F)c1 (stereo not drawn) (as salt: oxalic acid salt) [Example 2, 3-(2,4-DIFLUOROPHENYL)PYRROLIDINE]",–,116,–
"Fc1cc(F)cc(C2CCNC2)c1 (stereo not drawn) (as salt: oxalic acid salt) [Example 3, 3-(3,5-DIFLUOROPHENYL)PYRROLIDINE]",–,199 to 200,–
CN1CCN2c3ncccc3Cc3ccccc3C2C1 (stereo not drawn) [mirtazapine],–,–,"extracellular norepinephrine and dopamine, cortex versus striatum [2]: increase predominantly extracellular norepinephrine and dopamine in the cortex"
"Fc1ccc(C2CCNC2)cc1F (stereo not drawn) (as salt: hydrochloric acid salt) [Example 5, 3-(3,4-DIFLUOROPHENYL)PYRROLIDINE]",–,139 to 140,–
"Fc1cc(F)cc(C2CCNC2)c1 (stereo not drawn) [Example 3, 3-(3,5-DIFLUOROPHENYL)PYRROLIDINE]",−19%,–,–
"Fc1ccc(C2CCNC2)cc1F (stereo not drawn) [Example 5, 3-(3,4-DIFLUOROPHENYL)PYRROLIDINE]",−37%,–,–
"CN1CCC(c2ccc(F)c(F)c2)C1 (stereo not drawn) (as salt: fumaric acid salt) [Example 4, 3-(3,4-DIFLUOROPHENYL)-1-METHYLPYRROLIDINE]",–,140 to 142,–
"Clc1ccc(C2CCNC2)cc1Cl (stereo not drawn) (as salt: hydrochloric acid salt) [Example 1, 3-(3,4-DICHLOROPHENYL)PYRROLIDINE]",–,136 to 137,–
"CN1CCC(c2ccc(F)c(F)c2)C1 (stereo not drawn) [Example 4, 3-(3,4-DIFLUOROPHENYL)-1-METHYLPYRROLIDINE]",−20%,–,–
"CCCN1CCC(c2cc(F)cc(C(F)(F)F)c2)CC1 [Example 44 of WO01/46146, 4-(3-fluoro-5-trifluoromethyl-phenyl)-1-propyl-piperidine, reference compound]",+239%,–,–
CCCN1CCC[C@@H](c2cccc(S(C)(=O)=O)c2)C1 [Example 16 of ref. 1],–,–,DOPAC %-increase [3]: +150^2%
"CCCN1CCC(c2ccc(Cl)c(C(F)(F)F)c2)CC1 [Example 9 of WO01/46146, 4-(4-chloro-3-trifluoromethyl-phenyl)-1-propyl-piperidine, reference compound]",+94%,–,–
CNCC[C@@H](Oc1ccccc1C)c1ccccc1 [atomoxetine],–,–,cortical DA and NE levels [4]: regionally selective increases in cortical DA and NE
"Clc1ccc(C2CCNC2)cc1Cl (stereo not drawn) [Example 1, 3-(3,4-DICHLOROPHENYL)PYRROLIDINE]",−45%,–,–
